Where two headings read alike, the source gives them in different places.
Columns and labels:
HCoV-229E = assay: Antiviral CPE reduction assay, HCoV-229E in HEL299 cells; assay type: cell-based, human coronavirus 229E; settings: mean ± SD of two or three independent experiments
HCoV-NL63 = assay: Antiviral CPE reduction assay, HCoV-NL63 in Hep3B cells; assay type: cell-based, human coronavirus NL63; settings: mean ± SD of two or three independent experiments
[1] = system: respiratory syncytial virus A (RSV A Long); assay: Antiviral CPE reduction assay, RSV A Long in Hep2 cells; assay type: cell-based
[2] = system: HCT-116 (colorectal carcinoma); assay: MTS proliferation assay, HCT-116; settings: read-out: Anti-Proliferative Activity (IC50) HCT-116
[3] = system: HL-60 (acute myeloid leukemia); assay: MTS proliferation assay, HL-60; settings: read-out: Anti-Proliferative Activity (IC50) HL-60
LN-229 (glioblastoma) = assay: MTS proliferation assay, LN-229; settings: read-out: Anti-Proliferative Activity (IC50) LN-229
Zika virus (ZikV mr766) = assay: Antiviral CPE reduction assay, Zika virus mr766 in VeroE6 cells; assay type: cell-based; settings: mean ± SD, no unit printed on the supplement page (Table 2 of the same screen is in µM)
[4] = system: K-562 (chronic myeloid leukemia); assay: MTS proliferation assay, K-562; settings: read-out: Anti-Proliferative Activity (IC50) K-562
[5] = system: influenza A/H3N2 (A/HK/7/87); assay: Antiviral CPE reduction assay, influenza A/H3N2 in MDCK cells; assay type: cell-based, influenza A virus; settings: read-out: Antiviral Activity (EC50) Influenza H3N2
[6] = system: DND-41 (acute lymphoblastic leukemia); assay: MTS proliferation assay, DND-41; settings: read-out: Anti-Proliferative Activity (IC50) DND-41
[7] = system: Z-138 (non-Hodgkin lymphoma); assay: MTS proliferation assay, Z-138; settings: read-out: Anti-Proliferative Activity (IC50) Z-138
[8] = system: herpes simplex virus-1 (HSV-1 KOS); assay: Antiviral CPE reduction assay, HSV-1 KOS in HEL299 cells; assay type: cell-based; settings: mean ± SD, no unit printed on the supplement page (Table 2 of the same screen is in µM)
[9] = system: eight diverse human cancer cell lines
[10] = system: yellow fever virus (YFV 17D); assay: microbe, parasite or virus in culture; assay type: cell-based
[11] = system: influenza B (B/Ned/537/05); assay: Antiviral CPE reduction assay, influenza B in MDCK cells; assay type: cell-based, influenza B virus; settings: read-out: Antiviral Activity (EC50) Influenza B
HCoV-OC43 = assay: Antiviral CPE reduction assay, HCoV-OC43 in HEL299 cells; assay type: cell-based, human coronavirus OC43; settings: mean ± SD of two or three independent experiments
[12] = system: NCI-H460 (lung carcinoma); assay: MTS proliferation assay, NCI-H460; settings: read-out: Anti-Proliferative Activity (IC50) NCI-H460
[13] = system: influenza A/H1N1 (A/Ned/378/05); assay: Antiviral CPE reduction assay, influenza A/H1N1 in MDCK cells; assay type: cell-based, influenza A virus; settings: read-out: Antiviral Activity (EC50) Influenza H1N1
[14] = system: Capan-1 (pancreatic adenocarcinoma); assay: MTS proliferation assay, Capan-1; settings: read-out: Anti-Proliferative Activity (IC50) Capan-1
in vitro [15] = settings: African green monkey
in vitro [16] = settings: human
[17] = system: eight diverse human cancer cell lines; assay: MTS proliferation assay, panel of eight human cancer cell lines (statements for the whole panel); settings: 72 h
in vitro [18] = settings: dog
in vitro [19] = settings: human; remark: listed apart in the source
in vitro [20] = settings: human; remark: listed apart in the source
[21] = system: variety of viruses (HSV-1, influenza viruses, yellow fever virus, Zika virus, RSV, HCoV-229E, HCoV-OC43, HCoV-NL63); assay type: cell-based; settings: CPE reduction assays, virus panel
[22] = 72 h, MTS, mean ± SD of two independent experiments
[23] = MDCK cells, CPE reduction, MTS, mean ± SD of two or three independent experiments
[24] = Human coronavirus 229E, HEL 299, MTS
[25] = human respiratory syncytial virus, HEp-2, Hep2 cells, CPE reduction, MTS, mean ± SD of two or three independent experiments, read-out: Antiviral Activity (EC50) RSV A Long
[26] = Influenza A virus, H3N2, MDCK cells, CPE reduction, MTS, mean ± SD of two or three independent experiments
[27] = read-out: CC50 values (cytotoxic activity) in the cancer cell line panel
[28] = Human alphaherpesvirus 1, HEL 299, MTS
[29] = Yellow fever virus, Vero C1008, read-out: Antiviral activity (EC50) YFV 17D
[30] = Betacoronavirus 1, OC43, HEL 299, MTS
[31] = Influenza A virus, H1N1, MDCK cells, CPE reduction, MTS, mean ± SD of two or three independent experiments

## C=CC(=O)Nc1cccc(Nc2nc(Nc3ccc(NC4CN(CCF)C4)cc3OC)ncc2C(F)(F)F)c1 [CNX-2006, reference compound]
HCoV-229E; MTS
  EC50: 1.8 ± 0.2 µM
Hep3B cells
  CC50: 4.3 ± 1.8 µM
HCoV-NL63; MTS
  EC50: > 100 µM
[1]; Hep2 cells, CPE reduction, MTS, mean ± SD of two or three independent experiments, read-out: Antiviral Activity (EC50) RSV A Long
  EC50: > 100 µM
[2]; [22]
  IC50: 6.6 ± 0.7 µM
Hep2 cells
  CC50: 11.7 ± 0.8 µM
[3]; [22]
  IC50: 3.8 ± 1.4 µM
LN-229 (glioblastoma); [22]
  IC50: 8.2 ± 1.2 µM
Zika virus (ZikV mr766); MTS
  EC50: > 100 µM
[4]; [22]
  IC50: 11.5 ± 0.06 µM
[5]; [23]
  EC50: > 100 µM
[6]; [22]
  IC50: 4.5 ± 0.2 µM
MDCK cells
  CC50: 1.7 ± 0.4 µM
[7]; [22]
  IC50: 2.6 ± 0.5 µM
HEL299 cells
  CC50: 11.1 ± 1 µM
VeroE6 cells
  CC50: 9.2 ± 1.1 µM
[8]; MTS
  EC50: > 100 µM
[9]
  CC50: < 10 µM
[10]; VeroE6 cells, CPE reduction, MTS, mean ± SD, no unit printed on the supplement page (Table 2 of the same screen is in µM), read-out: Antiviral activity (EC50) YFV 17D
  EC50: > 100 µM
[11]; [23]
  EC50: > 100 µM
HCoV-OC43; MTS
  EC50: 2.2 ± 0.8 µM
[12]; [22]
  IC50: 8.7 ± 1.9 µM
[13]; [23]
  EC50: > 100 µM
[14]; [22]
  IC50: 1.7 ± 0.01 µM

## C#Cc1cccc(Nc2ncnc3cc4c(cc23)OCCOCCOCCO4)c1 [Icotinib, icotinib, reference compound]
HCoV-229E; [24]
  EC50: > 100 µM
In vitro [15]
  CC50: > 100 µM
HCoV-NL63; Human coronavirus NL63, MTS
  EC50: > 100 µM
[1]; [25]
  EC50: > 100 µM
[2]; Homo sapiens, HCT-116, 72 h
  IC50: > 100 µM
[3]; Homo sapiens, HL-60, 72 h
  IC50: > 100 µM
LN-229 (glioblastoma); Homo sapiens, LN-229, 72 h
  IC50: > 100 µM
Zika virus (ZikV mr766); Zika virus, Vero C1008, MTS
  EC50: > 100 µM
In vitro [16]
  CC50: > 100 µM
[4]; Homo sapiens, K562, 72 h
  IC50: > 100 µM
[5]; [26]
  EC50: > 100 µM
[6]; Homo sapiens, DND41, 72 h
  IC50: > 100 µM
[17]; [27]
  CC50: > 100 µM
In vitro [18]
  CC50: > 100 µM
[7]; Homo sapiens, Z-138, 72 h
  IC50: > 100 µM
[8]; [28]
  EC50: > 100 µM
[10]; [29]
  EC50: > 100 µM
[11]; Influenza B virus, MDCK cells, CPE reduction, MTS, mean ± SD of two or three independent experiments
  EC50: > 100 µM
In vitro [19]
  CC50: > 100 µM
HCoV-OC43; [30]
  EC50: > 100 µM
[12]; Homo sapiens, NCI-H460, 72 h
  IC50: > 100 µM
[13]; [31]
  EC50: > 100 µM
In vitro [20]
  CC50: > 100 µM
[14]; Homo sapiens, CAPAN-1, 72 h
  IC50: > 100 µM

## C=CC(=O)Nc1cccc(Oc2nc(Nc3ccc(N4CCN(C)CC4)cc3OC)ncc2Cl)c1 [WZ4002, reference compound]
HCoV-229E; [24]
  EC50: 41.8 ± 9.8 µM
In vitro [15]
  CC50: > 100 µM
HCoV-NL63; Human coronavirus NL63, MTS
  EC50: > 100 µM
[1]; [25]
  EC50: > 100 µM
[2]; Homo sapiens, HCT-116, 72 h
  IC50: > 100 µM
[3]; Homo sapiens, HL-60, 72 h
  IC50: > 100 µM
LN-229 (glioblastoma); Homo sapiens, LN-229, 72 h
  IC50: > 100 µM
Zika virus (ZikV mr766); Zika virus, Vero C1008, MTS
  EC50: > 100 µM
In vitro [16]
  CC50: > 100 µM
[4]; Homo sapiens, K562, 72 h
  IC50: > 100 µM
[5]; [26]
  EC50: > 100 µM
[6]; Homo sapiens, DND41, 72 h
  IC50: > 100 µM
[17]; [27]
  CC50: > 100 µM
In vitro [18]
  CC50: > 100 µM
[7]; Homo sapiens, Z-138, 72 h
  IC50: > 100 µM
[8]; [28]
  EC50: > 100 µM
[10]; [29]
  EC50: > 100 µM
[11]; Influenza B virus, MDCK
  EC50: > 100 µM
In vitro [19]
  CC50: > 100 µM
HCoV-OC43; [30]
  EC50: > 100 µM
[12]; Homo sapiens, NCI-H460, 72 h
  IC50: > 100 µM
[13]; [31]
  EC50: > 100 µM
In vitro [20]
  CC50: > 100 µM
[14]; Homo sapiens, CAPAN-1, 72 h
  IC50: > 100 µM

## c1cc2c(c(Nc3ncnc4nc(NC5CC5)ncc34)c1)CCCC2 [Compound 7c, N^2-cyclopropyl-N^5-(5,6,7,8-tetrahydronaphthalen-1-yl)pyrimido[4,5-d]pyrimidine-2,5-diamine]
HCoV-229E; [24]
  EC50: > 50 µM
In vitro [15]
  CC50: > 50 µM
HCoV-NL63; Human coronavirus NL63, MTS
  EC50: > 50 µM
[1]; [25]
  EC50: > 50 µM
[2]; Homo sapiens, HCT-116, 72 h
  IC50: > 100 µM
[3]; Homo sapiens, HL-60, 72 h
  IC50: > 100 µM
LN-229 (glioblastoma); Homo sapiens, LN-229, 72 h
  IC50: > 100 µM
Zika virus (ZikV mr766); Zika virus, Vero C1008, MTS
  EC50: > 50 µM
In vitro [16]
  CC50: > 50 µM
[4]; Homo sapiens, K562, 72 h
  IC50: > 100 µM
[5]; [26]
  EC50: > 50 µM
[6]; Homo sapiens, DND41, 72 h
  IC50: > 100 µM
In vitro [18]
  CC50: > 50 µM
[7]; Homo sapiens, Z-138, 72 h
  IC50: > 100 µM
[8]; [28]
  EC50: > 50 µM
other
  melting point: 189 °C
[21]
  antiviral activity (in words): inactive
[10]; [29]
  EC50: > 50 µM
[11]; Influenza B virus, MDCK
  EC50: > 50 µM
In vitro [19]
  CC50: > 50 µM
HCoV-OC43; [30]
  EC50: > 50 µM
[12]; Homo sapiens, NCI-H460, 72 h
  IC50: > 100 µM
[13]; [31]
  EC50: > 50 µM
In vitro [20]
  CC50: > 50 µM
[14]; Homo sapiens, CAPAN-1, 72 h
  IC50: > 100 µM

## CC#CC(=O)Nc1ccc2ncnc(Nc3cccc(Br)c3)c2c1 [CL-387785, reference compound]
HCoV-229E; [24]
  EC50: 0.4 ± 0.2 µM
In vitro [15]
  CC50: > 100 µM
HCoV-NL63; Human coronavirus NL63, MTS
  EC50: > 100 µM
[1]; human respiratory syncytial virus, HEp-2, read-out: Antiviral Activity (EC50) RSV A Long
  EC50: > 100 µM
[2]; Homo sapiens, HCT-116, 72 h
  IC50: 1.3 ± 1.1 µM
[3]; Homo sapiens, HL-60, 72 h
  IC50: 1.9 ± 0.04 µM
LN-229 (glioblastoma); Homo sapiens, LN-229, 72 h
  IC50: 43.8 ± 6.7 µM
Zika virus (ZikV mr766); Zika virus, Vero C1008, MTS
  EC50: > 100 µM
[4]; Homo sapiens, K562, 72 h
  IC50: 65 ± 0.2 µM
[5]; Influenza A virus, H3N2, MDCK
  EC50: > 100 µM
[6]; Homo sapiens, DND41, 72 h
  IC50: 0.9 ± 0.2 µM
[17]; read-out: CC50 values (anti-proliferative activity) against the majority of the tested cell lines
  CC50: < 10 µM
In vitro [18]
  CC50: 7.1 ± 0.4 µM
[7]; Homo sapiens, Z-138, 72 h
  IC50: 0.2 ± 0.1 µM
[8]; [28]
  EC50: 1 µM
[10]; [29]
  EC50: > 100 µM
[11]; Influenza B virus, MDCK
  EC50: 4.5 ± 1.2 µM
HCoV-OC43; [30]
  EC50: 1.8 ± 0.4 µM
[12]; Homo sapiens, NCI-H460, 72 h
  IC50: 2.8 ± 0.6 µM
[13]; Influenza A virus, H1N1, MDCK
  EC50: > 100 µM
[14]; Homo sapiens, CAPAN-1, 72 h
  IC50: 0.1 ± 0.01 µM

— article PMC11643962, “Exploring 4,7-Disubstituted Pyrimido[4,5-d]pyrimidines as Antiviral and Anticancer Agents” (Molecules, 2024)
